Reference: patent publication US20130252924A1, “Compounds and Methods for Treating Pain” (AKRON MOLECULES GMBH, priority 2010, published 2013)
Counter-ions that a name gives are not always drawn.

How the values were obtained:
human PDE4D = molecular target: T1, human PDE4D (Homo sapiens, UniProt Q08499); experiment: Measurement of PDE4D activity and determination of IC50 (scintillation bead assay, 3H-cAMP); format: biochemical; settings: PDE4D inhibitor
T1 construct: The cloning of catalytic domains of human PDE4D as well as the expression and purification of the PDE catalytic domains; made in house
Method: The half maximal inhibitory concentration (IC50) is a measure of the effectiveness of a compound in inhibiting biological or biochemical function. Concentration-response plots are used to determine the effects of an inhibitor on an enzymatic reaction.
Measurement of phosphodiesterase activity takes advantage of the selective binding of 5-AMP or 5-GMP (and not cAMP or cGMP) to yttrium silicate beads with embedded scintillant. 0.1-1 nM PDE was incubated with 50 nM 3H-cAMP or 70 nM 3H-cGMP (Amersham, 5-60 Ci/mmol) in 50 mM Tris (pH 7.5), 8.3 mM MgCl2, 1.7 mM EGTA, and 0.01% BSA at 30 C for 30 min in 384-well assay plates. The assay was terminated by adding one-third volume of 5 mg/ml yttrium silicate beads in 18 mM ZnAcetate/ZnSO4 solution (3:1). A minimum of 30 min after mixing and centrifuging the reaction, hydrolysis was quantified by reading in a scintillation counter (Trilux, […] Wallac).

FRK = molecular target: T2, FRK (Homo sapiens, UniProt P42685); experiment: Binding affinity (Kd), KinomeScan kinase binding assay; settings: FRK inhibitor
T2 construct: either the full length protein or with a kinase construct that spans the catalytic domain
From the text: The assay can be performed with either the full length protein or with a kinase construct that spans the catalytic domain.

[1] = tested on: rats with peripheral mononeuropathy induced by loose ligation of the sciatic nerve; settings: background statement; cited from earlier work
[2] = tested on: rats with inflammatory pain induced by injection of an adjuvant (CFA); settings: background statement on the positive control; cited from earlier work

T1 sequence (Q08499 386-715 limits assumed): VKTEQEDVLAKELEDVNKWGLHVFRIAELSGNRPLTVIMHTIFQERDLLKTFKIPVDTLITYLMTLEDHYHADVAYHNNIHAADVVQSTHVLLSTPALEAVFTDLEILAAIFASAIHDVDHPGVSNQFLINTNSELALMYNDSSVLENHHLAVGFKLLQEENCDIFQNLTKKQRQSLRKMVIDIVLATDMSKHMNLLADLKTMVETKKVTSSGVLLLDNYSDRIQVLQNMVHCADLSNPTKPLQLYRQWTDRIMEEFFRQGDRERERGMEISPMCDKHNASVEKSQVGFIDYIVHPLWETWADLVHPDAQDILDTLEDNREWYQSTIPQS
T2 sequence (P42685 whole entry, the tested form may be a part): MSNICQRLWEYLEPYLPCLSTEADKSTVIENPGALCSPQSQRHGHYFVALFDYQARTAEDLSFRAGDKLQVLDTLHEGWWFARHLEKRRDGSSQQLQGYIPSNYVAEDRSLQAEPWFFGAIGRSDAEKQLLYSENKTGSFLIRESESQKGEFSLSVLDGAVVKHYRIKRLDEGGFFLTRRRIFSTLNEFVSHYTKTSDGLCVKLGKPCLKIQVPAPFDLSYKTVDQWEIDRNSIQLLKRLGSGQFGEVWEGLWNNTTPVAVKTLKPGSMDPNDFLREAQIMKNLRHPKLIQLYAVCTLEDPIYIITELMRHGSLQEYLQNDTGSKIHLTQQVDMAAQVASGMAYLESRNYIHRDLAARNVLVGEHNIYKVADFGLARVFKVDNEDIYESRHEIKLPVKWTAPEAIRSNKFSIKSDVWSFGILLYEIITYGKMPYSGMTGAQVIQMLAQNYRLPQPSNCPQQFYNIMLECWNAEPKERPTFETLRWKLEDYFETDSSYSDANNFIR

Row | Compound | IC50 (human PDE4D) [nM] | other results
1 | O=C(Nc1c(Cl)cncc1Cl)C(=O)c1cn(Cc2ccc(F)cc2)c2ncccc12 [Ronomilast] | 3.5 | 
2 | CCOc1cc2ncc(C#N)c(Nc3ccc(F)c(Cl)c3)c2cc1NC(=O)/C=C/CN(C)C [Pelitinib] |  | Kd (FRK): 190 nM
3 | CCC1C(C)=NN=C(c2ccc(OC)c(OC)c2)c2cc(OC)c(OC)cc21 (centres unmarked) [Tofisopam, 1-(3,4-dimethoxyphenyl)-5-ethyl-7,8-dimethoxy-4-methyl-5H-2,3-benzodiazepine] | 900 | 
4 | CC(C)C[C@H](CN)CC(=O)O [Pregabalin] |  | ameliorating symptoms of pain in the CCl model [1]: effective at ameliorating symptoms of pain
5 | Cc1c[n+]([O-])ccc1CC(c1ccc(C(O)(C(F)(F)F)C(F)(F)F)cc1)c1ccc(OC(F)F)c(OC(F)F)c1 [L-826,141, 4-[2-[3,4-Bis(difluoromethoxy)phenyl]-2-[4-[2,2,2-trifluoro-1-hydroxy-1-(trifluoro-methyl)ethyl]phenyl]ethyl]-3-methylpyridine N-oxide] | 2.4 | 
6 | CCCOc1cc([C@]2(C)CNC(=O)O2)ccc1OC [Daxalipram] | 1100 | 
7 | Tolafentrine | 30 | 
8 | CCNc1ncn(Cc2ccc(OC)c(OC3CCCC3)c2)c2nc(C(C)C)nc1-2 [V11294, -[(3-cyclopentyloxy-4-methoxyphenyl)methyl]-N-ethyl-8-propan-2-ylpurin-6-amine:] | 200 | 
9 | CS(=O)(=O)Nc1ccc2oc3c(OC(F)F)ccc(C(=O)Nc4c(Cl)cncc4Cl)c3c2c1 [oglemilast] | 166 | 
10 | COc1ccc2c(c1)c(CC(=O)O)c(C)n2C(=O)c1ccc(Cl)cc1 [indomethacin] |  | efficacy in the CFA model [2]: demonstrated efficacy
11 | COc1ccc(/C(C)=N/OC(N)=O)cc1OC1CCCC1 [Filaminast] | 1000 | 
12 | CCOc1ccc(-c2nc(-c3cccc(C(=O)O)n3)cs2)cc1OCC [Tetomilast, 6-[2-(3,4-diethoxyphenyl)-1,3-thiazol-4-yl]pyridine-2-carboxylic acid] | 70 | 
13 | COc1ccc([C@H](Cc2ccncc2)c2ccccc2)cc1OC1CCCC1 [CDP-840, 4-[(2R)-2-[3-(Cyclopentyloxy)-4-methoxyphenyl]-2-phenylethyl]-pyridine hydrochloride] | 2.1 | 
14 | O=C(Nc1c(Cl)c[n+]([O-])cc1Cl)c1ccc(OC(F)F)c2oc3ccncc3c12 [Revamilast] | 2.7 | 
